# “And” between values parts separate entries of the source, which are not always exact repeats. Identical values can stand only once.
# Tested on: 596521-263-R-J1-PDC complex spheroid growth
# Test: Anticancer human tumor 596521-263-R-J1-PDC patient-derived soft tissue sarcoma cell line growth inhibition [Asc]
# Conditions: for viability, T/C: stronger effect = lower value
# How it was run: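 Complex solid-tumor spheroids incorporating human endothelial and mesenchymal stem cells received single agents or combinations over half-log dilution ranges anchored to clinical Cmax.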
# [1] = curve of first compound, second compound 0.0316 µM
# [2] = curve of first compound, second compound 0.1 µM
# [3] = curve of first compound, second compound 0.316 µM
# [4] = curve of first compound, second compound 1 µM
# [5] = second compound 0.0316 µM, first compound 0.000316 µM
# [6] = second compound 0.0316 µM, first compound 0.001 µM
# [7] = second compound 0.0316 µM, first compound 0.00316 µM
# [8] = second compound 0.0316 µM, first compound 0.01 µM
# [9] = second compound 0.0316 µM, first compound 0.0316 µM
# [10] = second compound 0.0316 µM, first compound 0.1 µM
# [11] = second compound 0.1 µM, first compound 0.000316 µM
# [12] = second compound 0.1 µM, first compound 0.001 µM
# [13] = second compound 0.1 µM, first compound 0.00316 µM
# [14] = second compound 0.1 µM, first compound 0.01 µM
# [15] = second compound 0.1 µM, first compound 0.0316 µM
# [16] = second compound 0.1 µM, first compound 0.1 µM
# [17] = second compound 0.316 µM, first compound 0.000316 µM
# [18] = second compound 0.316 µM, first compound 0.001 µM
# [19] = second compound 0.316 µM, first compound 0.00316 µM
# [20] = second compound 0.316 µM, first compound 0.01 µM
# [21] = second compound 0.316 µM, first compound 0.0316 µM
# [22] = second compound 0.316 µM, first compound 0.1 µM
# [23] = second compound 1 µM, first compound 0.000316 µM
# [24] = second compound 1 µM, first compound 0.001 µM
# [25] = second compound 1 µM, first compound 0.00316 µM
# [26] = second compound 1 µM, first compound 0.01 µM
# [27] = second compound 1 µM, first compound 0.0316 µM
# [28] = second compound 1 µM, first compound 0.1 µM
# 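Further: spheroids exposed to compounds for 7 days.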
structure (smiles),measurement,setting,value
Cn1ncnc1[C@H]1c2n[nH]c(=O)c3cc(F)cc(c23)N[C@@H]1c1ccc(F)cc1 + CNC(C)C(=O)NC1CN(S(=O)(=O)c2cccc(S(=O)(=O)N3CCC4CCC(C(=O)NC(c5ccccc5)c5ccccc5)N4C(=O)C(NC(=O)C(C)NC)C3)c2)CCC2CCC(C(=O)NC(c3ccccc3)c3ccccc3)N2C1=O,IC50,"curve of first compound, second compound 0.00316 µM",< 0.316 nM
same,IC50,"curve of first compound, second compound 0.01 µM",> 100 nM
same,IC50,[1],> 100 nM
same,IC50,[2],> 100 nM
same,IC50,[3],> 100 nM
same,IC50,[4],> 100 nM
same,"viability, T/C","second compound 0.00316 µM, first compound 0.000316 µM",16.1%
same,"viability, T/C","second compound 0.00316 µM, first compound 0.001 µM",16%
same,"viability, T/C","second compound 0.00316 µM, first compound 0.00316 µM",15.3%
same,"viability, T/C","second compound 0.00316 µM, first compound 0.01 µM",16.5%
same,"viability, T/C","second compound 0.00316 µM, first compound 0.0316 µM",15.2%
same,"viability, T/C","second compound 0.00316 µM, first compound 0.1 µM",15.6%
same,"viability, T/C","second compound 0.01 µM, first compound 0.000316 µM",76%
same,"viability, T/C","second compound 0.01 µM, first compound 0.001 µM",62.1%
same,"viability, T/C","second compound 0.01 µM, first compound 0.00316 µM",63.8%
same,"viability, T/C","second compound 0.01 µM, first compound 0.01 µM",64.2%
same,"viability, T/C","second compound 0.01 µM, first compound 0.0316 µM",67.4%
same,"viability, T/C","second compound 0.01 µM, first compound 0.1 µM",57.3%
same,"viability, T/C",[5],92.6%
same,"viability, T/C",[6],75.9%
same,"viability, T/C",[7],73%
same,"viability, T/C",[8],76.9%
same,"viability, T/C",[9],64.1%
same,"viability, T/C",[10],64.7%
same,"viability, T/C",[11],81.9%
same,"viability, T/C",[12],81%
same,"viability, T/C",[13],79.9%
same,"viability, T/C",[14],71.1%
same,"viability, T/C",[15],62.2%
same,"viability, T/C",[16],60.3%
same,"viability, T/C",[17],83.3%
same,"viability, T/C",[18],74.7%
same,"viability, T/C",[19],79.3%
same,"viability, T/C",[20],64%
same,"viability, T/C",[21],65.1%
same,"viability, T/C",[22],60.6%
same,"viability, T/C",[23],73.2%
same,"viability, T/C",[24],76.8%
same,"viability, T/C",[25],71.5%
same,"viability, T/C",[26],77.3%
same,"viability, T/C",[27],64.1%
same,"viability, T/C",[28],58.3%
C=CC(=O)N1CCN(c2nc(=O)n(-c3c(C)ccnc3C(C)C)c3nc(-c4c(O)cccc4F)c(F)cc23)C(C)C1 (stereo unspecified),"viability, T/C",compound 0.0316 µM,93.6% and 91.4%
same,"viability, T/C",compound 0.1 µM,101% and 93.4%
same,"viability, T/C",compound 0.316 µM,97.6% and 109%
same,"viability, T/C",compound 1 µM,108% and 112%
same,"viability, T/C",compound 3.16 µM,96.7% and 107%
same,"viability, T/C",compound 10 µM,78% and 88.9%
same,IC50,curve of compound,> 10000 nM
NC1CCC(NC2CC2c2ccccc2)CC1 (stereo unspecified) + Cc1c(S(C)(=O)=O)c(-c2cc(F)cc(N3CCN(c4ccc(NS(=O)(=O)c5ccc(NC(CCN6CCC(C(=O)OCCCP(=O)(O)O)CC6)CSc6ccccc6)c(S(=O)(=O)C(F)(F)F)c5)cc4)CC3)c2)c(-c2ccc(Cl)cc2)n1C(C)C,IC50,[1],> 100 nM
same,IC50,[2],> 100 nM
same,IC50,[3],> 100 nM
same,IC50,[4],> 100 nM
same,IC50,"curve of first compound, second compound 3.16 µM",> 100 nM
same,IC50,"curve of first compound, second compound 10 µM",< 0.316 nM
same,"viability, T/C",[5],79.8%
same,"viability, T/C",[6],88.9%
same,"viability, T/C",[7],80.2%
same,"viability, T/C",[8],90.4%
same,"viability, T/C",[9],89.2%
same,"viability, T/C",[10],80.6%
same,"viability, T/C",[11],86.7%
same,"viability, T/C",[12],91.8%
same,"viability, T/C",[13],77.5%
same,"viability, T/C",[14],89.7%
same,"viability, T/C",[15],86.5%
same,"viability, T/C",[16],80.8%
same,"viability, T/C",[17],84.1%
same,"viability, T/C",[18],77.6%
same,"viability, T/C",[19],75.9%
same,"viability, T/C",[20],77.9%
same,"viability, T/C",[21],76.7%
same,"viability, T/C",[22],75.7%
same,"viability, T/C",[23],81.2%
same,"viability, T/C",[24],75.8%
same,"viability, T/C",[25],66.3%
same,"viability, T/C",[26],72.7%
same,"viability, T/C",[27],68.7%
same,"viability, T/C",[28],74.1%
same,"viability, T/C","second compound 3.16 µM, first compound 0.000316 µM",69.1%
same,"viability, T/C","second compound 3.16 µM, first compound 0.001 µM",55.7%
same,"viability, T/C","second compound 3.16 µM, first compound 0.00316 µM",51.9%
same,"viability, T/C","second compound 3.16 µM, first compound 0.01 µM",58.9%
same,"viability, T/C","second compound 3.16 µM, first compound 0.0316 µM",55.4%
same,"viability, T/C","second compound 3.16 µM, first compound 0.1 µM",53.4%
same,"viability, T/C","second compound 10 µM, first compound 0.000316 µM",48.6%
same,"viability, T/C","second compound 10 µM, first compound 0.001 µM",42.9%
same,"viability, T/C","second compound 10 µM, first compound 0.00316 µM",44.2%
same,"viability, T/C","second compound 10 µM, first compound 0.01 µM",49%
same,"viability, T/C","second compound 10 µM, first compound 0.0316 µM",35.7%
same,"viability, T/C","second compound 10 µM, first compound 0.1 µM",43%

# — PubChem BioAssay AID1963449 (Molecular Pharmacology Branch, DTP, NCI, 2024)
